Values quoted from earlier work as cited in patent publication US20100047803A1, “BIOMARKERS FOR ACETAMINOPHEN TOXICITY” (priority 2008, published 2010).

Assays:
[1] = administration after hepatic failure has developed
[2] = system: CYP2E1, CYP1A2, and CYP3A4; conditions: by CYP2E1, CYP1A2, and CYP3A4

SMILES	reduction in mortality [1]	share of acetaminophen converted to NAPQI [2] [%]
CC(=O)N[C@@H](CS)C(=O)O [N-acetylcysteine]	21-28%	
CC(=O)Nc1ccc(O)cc1 [acetaminophen, Acetaminophen]		5 to 9
